Experimental findings from patent US12421225B2, “Heteroaromatic amide derivative and medicament containing the same” (KAKEN PHARMACEUTICAL CO., LTD., priority 2018, dated 2025) are described below.

The pIC50 is −log10 of the IC50, conventionally taken in molar units. Low values mean a large IC50, high ones a small IC50.

The structures appear in SMILES notation. pIC50: −log10 of the molar value.

Chain of human Nav1.7 (Q15858 whole entry): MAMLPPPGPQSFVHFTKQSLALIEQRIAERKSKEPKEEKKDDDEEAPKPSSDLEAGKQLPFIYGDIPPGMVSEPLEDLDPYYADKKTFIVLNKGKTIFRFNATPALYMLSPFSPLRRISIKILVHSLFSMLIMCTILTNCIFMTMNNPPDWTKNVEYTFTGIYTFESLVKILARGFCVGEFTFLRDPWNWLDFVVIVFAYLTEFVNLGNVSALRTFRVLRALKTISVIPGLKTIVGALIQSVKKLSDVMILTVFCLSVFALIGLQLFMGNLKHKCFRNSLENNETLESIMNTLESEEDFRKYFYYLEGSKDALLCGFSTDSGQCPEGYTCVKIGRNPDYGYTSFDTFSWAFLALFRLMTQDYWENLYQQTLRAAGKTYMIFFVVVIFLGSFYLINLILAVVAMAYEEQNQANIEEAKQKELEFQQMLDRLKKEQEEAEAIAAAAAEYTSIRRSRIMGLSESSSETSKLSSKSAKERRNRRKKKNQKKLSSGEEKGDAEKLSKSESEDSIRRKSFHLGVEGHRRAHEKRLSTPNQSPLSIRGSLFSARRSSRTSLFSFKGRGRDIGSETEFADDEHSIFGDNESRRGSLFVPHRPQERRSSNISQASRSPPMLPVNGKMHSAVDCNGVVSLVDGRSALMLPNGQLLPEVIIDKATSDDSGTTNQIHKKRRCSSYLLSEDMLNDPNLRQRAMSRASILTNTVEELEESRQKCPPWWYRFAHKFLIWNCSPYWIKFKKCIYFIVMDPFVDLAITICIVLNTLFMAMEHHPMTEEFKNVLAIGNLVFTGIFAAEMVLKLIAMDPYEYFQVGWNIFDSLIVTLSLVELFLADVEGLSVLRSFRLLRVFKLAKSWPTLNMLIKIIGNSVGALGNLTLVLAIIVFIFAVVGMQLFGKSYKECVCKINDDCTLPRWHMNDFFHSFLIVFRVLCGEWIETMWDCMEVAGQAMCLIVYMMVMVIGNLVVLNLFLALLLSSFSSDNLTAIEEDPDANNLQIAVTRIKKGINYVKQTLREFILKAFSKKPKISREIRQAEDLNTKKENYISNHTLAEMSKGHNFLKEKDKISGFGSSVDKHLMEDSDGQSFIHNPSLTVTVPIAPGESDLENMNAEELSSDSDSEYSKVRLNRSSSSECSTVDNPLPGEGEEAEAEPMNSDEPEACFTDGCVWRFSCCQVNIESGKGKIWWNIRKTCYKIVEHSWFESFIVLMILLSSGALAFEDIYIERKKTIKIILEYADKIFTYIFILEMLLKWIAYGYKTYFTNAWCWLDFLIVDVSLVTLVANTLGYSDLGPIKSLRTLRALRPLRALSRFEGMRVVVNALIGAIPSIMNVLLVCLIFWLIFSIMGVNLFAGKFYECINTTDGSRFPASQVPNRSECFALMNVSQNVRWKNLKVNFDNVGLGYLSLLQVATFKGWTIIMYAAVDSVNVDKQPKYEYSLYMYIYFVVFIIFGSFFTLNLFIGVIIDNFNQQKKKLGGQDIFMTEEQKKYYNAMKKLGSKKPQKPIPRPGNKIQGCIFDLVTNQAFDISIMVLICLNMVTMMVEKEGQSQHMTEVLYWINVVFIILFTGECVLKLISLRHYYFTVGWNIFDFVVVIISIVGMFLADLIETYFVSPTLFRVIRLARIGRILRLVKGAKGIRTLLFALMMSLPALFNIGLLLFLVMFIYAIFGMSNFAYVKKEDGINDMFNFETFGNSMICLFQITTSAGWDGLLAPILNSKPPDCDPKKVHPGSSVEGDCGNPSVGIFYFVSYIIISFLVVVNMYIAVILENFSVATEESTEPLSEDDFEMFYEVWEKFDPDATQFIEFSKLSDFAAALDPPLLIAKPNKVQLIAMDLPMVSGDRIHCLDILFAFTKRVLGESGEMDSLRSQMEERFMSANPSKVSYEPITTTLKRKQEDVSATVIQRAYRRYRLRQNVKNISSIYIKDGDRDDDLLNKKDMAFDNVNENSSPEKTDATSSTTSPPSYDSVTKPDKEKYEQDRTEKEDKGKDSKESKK
Chain of human Nav1.7 (Q07699 19-218 partner): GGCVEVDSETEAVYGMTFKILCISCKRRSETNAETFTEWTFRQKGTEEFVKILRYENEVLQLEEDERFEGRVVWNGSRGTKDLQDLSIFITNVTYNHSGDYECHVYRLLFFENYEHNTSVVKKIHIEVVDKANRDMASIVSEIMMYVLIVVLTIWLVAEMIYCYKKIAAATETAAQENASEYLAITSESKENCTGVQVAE

The test addresses human Nav1.7 (Homo sapiens (Human), UniProt Q15858). Nature of the test: Human Nav1.7 inhibitory activity evaluation (automated patch clamp QPatch16X, HEK293A cells stably expressing human Nav1.7 and human Navβ1). As to conditions: human Nav1.7, automated patch clamp. In kind it is cell-based. The procedure, abridged: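 IC50 calculated from the concentration-response of inward current evoked by the second −10 mV, 50 ms depolarisation, which follows a 15 s conditioning step at roughly 30-40% inactivation and a 100 ms −120 mV interval. Cells: HEK293A expressing human Nav1.7/Navβ1, automated patch clamp, room temperature, 0.1% DMSO final.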
(The patch-clamp technique gives a direct electrical read-out from membranes.)
`O=C(N[C@H]1COc2ccc(COC3CCC3)cc2C1)c1cc2n(n1)CCC(C(F)(F)F)O2` (stereo partly shown) [Example 399] had a pIC50 of more than 6.00.

In turn, `CC1(C)CCn2nc(C(=O)N[C@H]3COc4ccc(CCOC(F)(F)F)cc4C3)cc2O1` [Example 403] gave a pIC50 of more than 6.00.

`O=C(N[C@H]1COc2ccc(Cl)cc2C1)c1cc2n(n1)CCC(CC(F)F)O2` (stereo partly shown) [Example 404] had a negative logarithm of the IC50 (pIC50) of more than 6.00.

Turning to `O=C(N[C@H]1COc2ccc(C3CC3)cc2C1)c1cc2n(n1)CCC(C(F)F)O2` (stereo partly shown) [Example 405], the pIC50 was more than 6.00.

In turn, `O=C(N[C@H]1COc2ccc(Cl)cc2C1)c1cc2n(n1)CCC(C#CC1CC1)O2` (stereo partly shown) [Example 406] gave a pIC50 of more than 6.00.

In the case of `CCOC(F)C1CCn2nc(C(=O)N[C@H]3COc4ccc(Cl)cc4C3)cc2O1` (stereo partly shown) [Example 409], the pIC50 was more than 6.00.

`N#Cc1ccc2c(c1)C[C@@H](NC(=O)c1cc3n(n1)CCC(COCC1CCC1)O3)CO2` (stereo partly shown) [Example 410] had a pIC50 of more than 6.00.

Take `O=C(N[C@H]1COc2ccc(Cl)cc2C1)c1cc2n(n1)CCC(COCC1CCOCC1)O2` (stereo partly shown) [Example 413]: the pIC50 is more than 6.00.

Compound `O=C(c1cc2n(n1)CCC(COCC1COC1)O2)N(CC1COC1)[C@H]1COc2ccc(-c3ccccn3)cc2C1` (stereo partly shown) [Example 414] had a pIC50 of more than 5.00.

`O=C(N[C@H]1COc2ccc(Cl)cc2C1)c1cc2n(n1)CCC1(CCOCC1)O2` [Example 416] gave a pIC50 of more than 5.00.

The compound `N#Cc1ccc2c(c1)C[C@@H](NC(=O)c1cc3n(n1)CCC(C(O)C(F)(F)F)O3)CO2` (stereo partly shown) [Example 417] showed a pIC50 of more than 5.00.

`N#Cc1ccc2c(c1)C[C@@H](NC(=O)c1cc3n(n1)CCC(COCCC(F)(F)F)O3)CO2` (stereo partly shown) [Example 418] showed a pIC50 of more than 5.00.

In turn, `CC1(COCC2CC2)CCn2nc(C(=O)N[C@H]3COc4ccc(C#N)cc4C3)cc2O1` (stereo partly shown) [Example 419] had a pIC50 of more than 5.00.

For `O=C(N[C@H]1COc2ccc(Cl)cc2C1)c1cc2n(n1)CCC(COC(F)(F)F)O2` (stereo partly shown) [Example 420], the pIC50 was more than 6.00.

Take `N#Cc1ccc2c(c1)C[C@@H](NC(=O)c1cc3n(n1)CCC(CSCC(F)(F)F)O3)CO2` (stereo partly shown) [Example 423]: the pIC50 is more than 6.00.

For the compound `N#Cc1ccc2c(c1)C[C@@H](NC(=O)c1cc3n(n1)CCC(CSCC(F)(F)F)O3)CO2` (stereo partly shown) [Example 424], the pIC50 is more than 5.00.

`O=C(N[C@H]1COc2ccc(-c3cnn(CC(F)(F)F)c3)cc2C1)c1cc2n(n1)CCC(COCC1CC1)O2` (stereo partly shown) [Example 430]: the pIC50 was more than 6.00.

`O=C(N[C@H]1COc2ccc(C(F)(F)F)cc2C1)c1cc2n(n1)CCC(CCOC(F)F)O2` (stereo partly shown) [Example 433] gave a pIC50 of more than 6.00.

Take `N#Cc1ccc2c(c1)C[C@@H](NC(=O)c1cc3n(n1)CCC(COCC1(C(F)(F)F)CC1)O3)CO2` (stereo partly shown) [Example 434]: the pIC50 was more than 6.00.

`O=C(N[C@H]1COc2ccc(-c3cnccn3)cc2C1)c1cc2n(n1)CCC(COCC1(C(F)(F)F)CC1)O2` (stereo partly shown) [Example 435] had a pIC50 of more than 6.00.

Compound `C#Cc1ccc2c(c1)C[C@@H](NC(=O)c1cc3n(n1)CCC(COCC(F)(F)F)O3)CO2` (stereo partly shown) [Example 436] showed a pIC50 of more than 6.00.

Compound `O=C(N[C@H]1COc2ccc(COCC(F)(F)F)cc2C1)c1cc2n(n1)CCC(COC1CCC1)O2` (stereo partly shown) [Example 438] showed a pIC50 of more than 6.00.

`N#Cc1ccc2c(c1)C[C@@H](NC(=O)c1cc3n(n1)CCC(COC1CC(F)C1)O3)CO2` (stereo partly shown) [Example 439]: the pIC50 was more than 5.00.

In turn, `O=C(N[C@H]1COc2ccc(COCC(F)(F)F)cc2C1)c1cc2n(n1)CCC(CN1CC(F)(F)C1)O2` (stereo partly shown) [Example 440] gave a negative-log IC50 (pIC50) of more than 5.00.

`O=C(N[C@H]1COc2ccc(CC(F)(F)F)cc2C1)c1cc2n(n1)CCC(COCC(F)(F)F)O2` (stereo partly shown) [Example 441] had a pIC50 of more than 6.00.

`O=C(N[C@H]1COc2ccc(Cl)cc2C1)c1cc2n(n1)CCC(COCC(F)(F)F)O2` (stereo partly shown) [Example 442]: the pIC50 is more than 6.00.

With `CC1CCn2nc(C(=O)N[C@H]3COc4ccc(Cl)cc4C3)c(-c3ccccc3)c2O1` (stereo partly shown) [Example 444], the pIC50 is more than 6.00.

Regarding `Cc1c(C(=O)N[C@H]2COc3ccc(Cl)cc3C2)nn2c1OC(C)(C)C2` [Example 446], the negative-log IC50 (pIC50) was more than 5.00.

Compound `O=C(N[C@H]1COc2ccc(Cl)cc2C1)c1cc2n(n1)CC(C(F)(F)COCC1CC1)O2` (stereo partly shown) [Example 449] gave a pIC50 of more than 6.00.

In the case of `CCN(CC1Cn2nc(C(=O)N[C@H]3COc4ccc(C#N)cc4C3)cc2O1)CC(F)(F)F` (stereo partly shown) [Example 452], the pIC50 was more than 5.00.

`O=C(N[C@H]1COc2ccc(Cl)cc2C1)c1cc2n(n1)CC(Cn1cccn1)O2` (stereo partly shown) [Example 453] showed a pIC50 of more than 5.00.

Turning to `N#Cc1ccc2c(c1)C[C@@H](NC(=O)c1cc3n(n1)CC(CCn1cc(C(F)(F)F)cn1)O3)CO2` (stereo partly shown) [Example 455], the pIC50 was more than 6.00.

Consider `CC1(C)CN(CC2Cn3nc(C(=O)N[C@H]4COc5ccc(C(F)(F)F)cc5C4)cc3O2)CCO1` (stereo partly shown) [Example 458], for which the pIC50 was more than 6.00.

Regarding `O=C(N[C@H]1COc2ccc(C3CC3)cc2C1)c1cc2n(n1)CC(COCC1CC1)O2` (stereo partly shown) [Example 463], the negative-log IC50 (pIC50) is more than 6.00.

In turn, `N#Cc1ccc2c(c1)C[C@@H](NC(=O)c1cc3n(n1)CC(CCOCC1(C(F)(F)F)CC1)O3)CO2` (stereo partly shown) [Example 465] had a pIC50 of more than 6.00.

`O=C(N[C@H]1COc2ccc(-c3cnccn3)cc2C1)c1cc2n(n1)CC(CCOCC1(C(F)(F)F)CC1)O2` (stereo partly shown) [Example 467] gave a pIC50 of more than 6.00.

On to `O=C(N[C@H]1COc2ccc(Cl)cc2C1)c1cc2n(n1)CC(COCC1CC1)O2` (stereo partly shown) [Example 469], for which the pIC50 is more than 6.00.

As for `O=C(N[C@H]1COc2ccc(CC(F)F)cc2C1)c1cc2n(n1)CC(CCOC1CCC1)O2` (stereo partly shown) [Example 471], the pIC50 was more than 6.00.

For `O=C(N[C@H]1COc2ccc(COCC(F)(F)F)cc2C1)c1cc2n(n1)CC(CCOC1CCC1)O2` (stereo partly shown) [Example 472], the pIC50 is more than 6.00.

The compound `Cn1cc(-c2ccc3c(c2)C[C@@H](NC(=O)c2cc4n(n2)CC(CCOC2CCC2)O4)CO3)cn1` (stereo partly shown) [Example 473] had a pIC50 of more than 6.00.

In the case of `O=C(N[C@H]1COc2ccc(-c3cnccn3)cc2C1)c1cc2n(n1)CC(CCOC1CCC1)O2` (stereo partly shown) [Example 474], the pIC50 was more than 6.00.

Compound `Cc1cnc(-c2ccc3c(c2)C[C@@H](NC(=O)c2cc4n(n2)CC(CCOC2CCC2)O4)CO3)cn1` (stereo partly shown) [Example 475] showed a pIC50 of more than 6.00.

`O=C(N[C@H]1COc2ccc(C(F)(F)F)cc2C1)c1cc2n(n1)CC(CCN1CCC(F)(F)C1)O2` (stereo partly shown) [Example 476] gave a pIC50 of more than 6.00.

`O=C(N[C@H]1COc2ccc(CC(F)F)cc2C1)c1cc2n(n1)CC(CCOCC(F)F)O2` (stereo partly shown) [Example 478]: the pIC50 is more than 6.00.

For `O=C(N[C@H]1COc2ccc(CC(F)(F)F)cc2C1)c1cc2n(n1)CC(CCOCC(F)F)O2` (stereo partly shown) [Example 479], the pIC50 was more than 6.00.

`O=C(N[C@H]1COc2ccc(Cl)cc2C1)c1cc2n(n1)CCCC(c1ccccc1)O2` (stereo partly shown) [Example 480] gave a pIC50 of more than 5.00.

With `O=C(N[C@H]1COc2ccc(COCC(F)(F)F)cc2C1)c1cc2n(n1)CCC(OCC(F)(F)F)CO2` (stereo partly shown) [Example 482], the pIC50 was more than 6.00.

`N#Cc1ccc2c(c1)C[C@@H](NC(=O)c1cc3n(n1)CCC(C(F)(F)F)CO3)CO2` (stereo partly shown) [Example 483]: the pIC50 was more than 5.00.

As for `COc1cccc(-c2c(C(=O)N[C@H]3COc4ccc(C(F)(F)F)cc4C3)nn3c2COCC3)n1` [Example 484], the pIC50 was more than 6.00.

As to `O=C(N[C@H]1COc2ccc(C(F)(F)F)cc2C1)c1nn2c(c1-c1cccc(Cl)n1)COCC2` [Example 485], the pIC50 is more than 6.00.

Consider `O=C(N[C@H]1COc2ccc(C(F)(F)F)cc2C1)c1nn2c(c1-c1ccn[nH]1)OCCC2` [Example 486], for which the pIC50 is more than 6.00.

`N#Cc1ccc2c(c1)C[C@@H](NC(=O)c1cc3n(n1)CCN(CC1CCC1)C3)CO2` [Example 498] gave a pIC50 of more than 6.00.

In turn, `CC(C)(c1ccccn1)N1CCn2nc(C(=O)N[C@H]3COc4ccc(C#N)cc4C3)cc2C1` [Example 501] gave a pIC50 of more than 5.00.

The compound `N#Cc1ccc2c(c1)C[C@@H](NC(=O)c1cc3n(n1)CCN(C1(CC(F)(F)F)CC1)C3)CO2` [Example 503] had a pIC50 of more than 5.00.

`O=C(N[C@H]1COc2ccc(COCC(F)(F)F)cc2C1)c1cc2n(n1)CCN(CCC1CC1)C2` [Example 505] gave a pIC50 of more than 6.00.

`O=C(NC1COc2ccccc2C1)c1cc2n(n1)CCN(c1ccc(F)cc1)C2` (stereo not shown) [Example 508] had a pIC50 of more than 6.00.

Compound `O=C(N[C@H]1COc2ccc(Cl)cc2C1)c1nn2c(c1-c1ccccc1)CN(CC(F)(F)F)CC2` [Example 509] showed a pIC50 of more than 5.00.

`O=C(NC1COc2ccccc2C1)c1cc2n(n1)CCN(C(=O)CCc1ccccc1)C2` (stereo not shown) [Example 510] gave a pIC50 of more than 5.00.

For the compound `O=C(NC1COc2ccccc2C1)c1cc2n(n1)CCN(S(=O)(=O)c1ccccc1C(F)(F)F)C2` (stereo not shown) [Example 511], the pIC50 is more than 5.00.

The compound `Cc1cc(-c2c(C(=O)N[C@H]3COc4ccc(C(F)(F)F)cc4C3)nc3n2CCOC3)[nH]n1` [Example 512] gave a pIC50 of more than 5.00.

`O=C(N[C@H]1COc2ccc(C(F)(F)F)cc2C1)c1nn2c(c1-c1cccc(F)n1)COCC2` [Example 513] gave a pIC50 of more than 6.00.

The compound `O=C(N[C@H]1COc2ccc(Cl)cc2C1)c1nn2c(c1-c1ccccn1)COCC2` [Example 515] had a pIC50 of more than 6.00.

Consider `CCc1cccc(-c2c(C(=O)N[C@H]3COc4ccc(C#N)cc4C3)nn3c2COCC3)n1` [Example 516], for which the pIC50 is more than 5.00.

The compound `O=C(N[C@H]1COc2ccc(C(F)(F)F)cc2C1)c1nn2c(c1-c1ccc3cccnc3c1)COCC2` [Example 517] had a pIC50 of more than 5.00.

In the case of `O=C(N[C@H]1COc2ccc(C(F)(F)F)cc2C1)c1nn2c(c1-c1cccc(CO)n1)COCC2` [Example 519], the pIC50 was more than 5.00.

Compound `O=C(N[C@H]1COc2ccc(C(F)(F)F)cc2C1)c1nn2c(c1-c1cccc(COCC(F)(F)F)n1)COCC2` [Example 520] showed a pIC50 of more than 6.00.

Turning to `O=C(N[C@H]1COc2ccc(C(F)(F)F)cc2C1)c1nn2c(c1-c1cccc(CC(F)(F)F)n1)COCC2` [Example 523], the pIC50 was more than 6.00.
